“Also recorded” adds a separate entry of the source.
Columns and labels:
[1] = tested on: S6 phosphorylation (S235/236); assay: mTOR signaling in brain samples of pilocarpine pre-treated and naïve mice (western blot); assay type: in vivo, mouse; conditions: for decrease of S6 phosphorylation (S235/236) versus control: brain, 3 hours after single oral dose: Cpd. 3 40 mg/kg, Cpd. 8 25 mg/kg, everolimus 5 mg/kg
Procedure: A ramping-up dosing protocol was used which has the advantage that pilocarpine can be individually applied according to the susceptibility of each mouse. Pilocarpine (Sigma-Aldrich, Germany) was administered to female NMRI mice intraperitoneally at a dose of 100 mg/kg (Pilo-SE group). […] To reduce peripheral side effects of pilocarpine, methylscopolamine (Sigma-Aldrich, Germany) was administered 30 minutes prior to the first injection of pilocarpine. Animals were continuously monitored and duration of convulsive SE was registered [referred to Racine's scale. SE onset was defined as continuous ongoing seizure activity following occurrence of one or two generalized tonic-clonic seizures [stage 4 or 5 on the Racine scale]. SE was characterized by head nodding in an upright (sitting) body position, Straub tail, and slight to moderate convulsions of forelimbs, sometimes interrupted by further generalized tonic-clonic seizures. In order to reduce mortality, SE was terminated by diazepam (10 mg/kg i.p.; diazepam-ratiopharm 10, injection solution) 90 min after SE onset. […] In the sham-SE group mice were treated with the same treatment scheme as the pilo-SE group but pilocarpine was replaced by 0.9% sodium chloride solution. The mortality in the pilo-SE model in mice is relatively high (overall about 50%) and can vary markedly between experimental groups/days. Therefore we had to start with a large number of mice for SE induction in order to reliably obtain a group size of 20-22 animals for the MEST.
Brain samples from pilocarpine treated mice and untreated mice were snap frozen and tissue was lysed in buffer containing 25 mM Tris-HCl, pH 8, 50 mM NaCl, 0.5% (w/v) sodium deoxycholate (DOC), and 0.5% (w/v) Triton X-100 and supplemented with complete protease inhibitor (Roche, Mannheim, Germany) and Phosphostop (NEB, USA). Disruption of cell lysates was performed by drawing up the cell suspension twenty times into a syringe with a small gauge needle (21 G) on ice. Protein concentrations in the lysates were determined by using the Pierce BCA Protein Assay kit (Thermo Scientific, Bonn, Germany) according to the manufacturer's instructions. […] Membranes were incubated with primary antibodies anti S6 1:1000, anti S6 Phospho Serin (240/244) 1:1000, anti S6 Phospho Serin (235/236) 1:2000 (NEB) and anti-Actin 1:100 (Sigma-Aldrich) for 1 h in 2% milk in PBST at room temperature (RT) and washed three times for 10 min in PBS-T. Secondary antibodies anti-rabbit-HRP 1:1000 (Dako, Hamburg, Germany) were incubated for 1 h in 2% milk in PBST at RT and washed three times for 10 min in PBST. Proteins were detected by enhanced chemiluminescence using SuperSignal West Femto Chemiluminescent Substrate (Thermo Scientific) and the ChemiDoc system (Bio-Rad, Munich, Germany) with QuantityOne software (Bio-Rad) according to the manufacturer's protocol. Relative protein expressions were quantified densitometrically with QuantityOne (Bio-Rad) software and calculated by normalization to the reference signals of actin with GraphPad Prism software (GraphPad, San Diego, CA, USA).
Pilocarpine pre-treated and naïve mice were treated with a single oral dose of Cpd. 3 (40 mg/kg), Cpd. 8 (25 mg/kg), everolimus (5 mg/kg) or vehicle. 5 mice per group were utilized and sacrificed after 3 hours.

[2] = tested on: STHdh^Q7/Q7 and STHdh^Q111/Q111 cells; assay: PrestoBlue assay (cell viability/metabolic activity); assay type: cell-based, mouse; conditions: for metabolic activity (PrestoBlue) at 72 hours: 1230 nM, STHdh^Q111/Q111; for mitochondrial activity: at lower concentration
Procedure: Cell viability/metabolic activity was detected using the PrestoBlue viability reagent (Invitrogen, USA) according to the manufacturer's instructions. […] 3 (130 nM, 1230 nM), Cpd. […] Non-toxic concentrations determined were transferred to primary neurons used later on in this study. […] At lower concentration of Cpd. 3 and Cpd. […] 8 in STHdh^Q111/Q111. […] Wild type cells are less sensitive to mTOR inhibition and 2.

[3] = tested on: mTOR signaling (S6rP and 4E-BP phosphorylation) in STHdh^Q7/Q7 and STHdh^Q111/Q111 cells; assay: mTOR signaling in STHdh cells (western blot); assay type: cell-based, mouse; conditions: 4 hours
Procedure: 8 inhibit mTOR signaling and induce autophagy in neuronal cell models of HD, treatment of STHdh^Q111/Q111 and STHdh^Q7/Q7 cells was employed. […] Cells were seeded in 10 cm dishes. When cells were about 80% confluent, cells were differentiated and treated with compounds at the same time. […] At the end of incubation time cells were washed with cold PBS buffer and lysed with 200 μl of RIPA buffer supplemented with 4% Complete protease inhibitor (Roche, Switzerland) and 10% PhosStop (Roche, Switzerland). After 30 min of incubation on ice, lysates were vortexed, centrifuged (20 min, 4° C., 16000 rpm) and supernatants were collected. […] 30 μg of protein per sample was analyzed by western blot as described above using the following primary antibodies:

[4] = tested on: 51Q-HTT-Exon1-eGFP transfected HEK cells; assay: Immune cytochemistry, count of mutHTT aggregates; assay type: cell-based, human; conditions: Cpd. 8 130 nM, Cpd. 3 400 nM
Procedure: HEK cells were transiently transfected with pcDNA3.1/V5-His vector from Clontech (Mountain View, USA) containing the expression sequence for Exon1 of HTT with a 19Q (no aggregation) or 51Q extension and enhanced green fluorescence protein (eGFP) tag using Attractene Transfection Reagent (Qiagen, Netherlands). 1×10^6 cells were seeded in a 6 well plate. On the next day 2 μg DNA were mixed with 95.5 μl transfection media and 4.5 μl transfection reagent. After an incubation time of 15 min the mixture was added to the cells. After 72 hours cells were harvested or fixed for analysis.
HEK cells were seeded in poly-L-lysine (Sigma-Aldrich, USA) coated coverslips in 24 well plates at 10^4 cells per well and transiently transfected with 19Q- or 51Q-HTT-Exon1-eGFP. Cells were treated with Compounds as described under A for 8 or 24 hours. This incubation ended 72 hours after transfection. Cells were fixed with 4% (para-formaldehyde) PFA. Coverslips were fixed glass slides using mounting media that contained 4′,6-Diamidin-2-phenylindol (DAPI) (FIG. 7C). Nuclei and aggregates containing HTT-Exon1-eGFP were counted manually. 10 000 cells were counted per sample (FIG. 7D).

[5] = R6/2 pharmacokinetics (plasma, striatum, cerebellum, cortex); assay type: in vivo, mouse; conditions: R6/2 mice, single oral dose, one hour; Cpd. 3 75, 50, 25 mg/kg; Cpd. 8 25, 16, 8 mg/kg
Procedure: In order to test exposure of brain areas, R6/2 mice were treated with a single oral dose of Cpd. 3 (75 mg/kg, 50 mg/kg, 25 mg/kg) or Cpd. 8 (25 mg/kg, 16 mg/kg, 8 mg/kg), 3 animals per group. After one hour plasma was collected and animals were sacrificed. Striatum, cerebellum and cortex was separately snap frozen and analyzed for compound concentration using LC/MS/MS.

PK in B57BL/6J mice = conditions: for half-life: B57BL/6J, in vivo
Procedure: 8, 50 mg/kg was administered to B57BL/6J mice by gavage. Animals were housed in temperature controlled rooms with free access to food and water. Test items were weighed in a glass vial and dissolved first in DMSO. Tween 80 was added subsequently and finally, the formulation was completed with HPβCD 20%. […] Blood was collected in tubes containing K3-EDTA and stored on ice until centrifugation at 3000×g (10 min. 4° C.). The plasma supernatant was separated and kept at −20° C. until being assayed. Thigh muscle and brain of mice were snap frozen. The brain and muscle samples were homogenized in PBS using the Precellys 24/Dual homogeniser.
Samples were analyzed by LC-MS. Calibration standards were prepared by spiking 20 μl of drug free blank plasma with calibration solution. […] Samples were vigorously shaken and centrifuged for 10 minutes at 6000 g and 20° C. […] An aliquot was transferred to 200 μl sampler vials and subsequently subjected to LC-MS with an injection volume of 1.5 μl.

[6] = tested on: STHdh^Q7/Q7 and STHdh^Q111/Q111 cells; assay: LDH assay (cytotoxicity); conditions: for LDH activity compared to control: at higher concentrations; for LDH production: time points between 24 h and 48 h
Procedure: Cytotoxicity of test compounds was measured using the lactate dehydrogenase (LDH) assay from Roche, Switzerland according to the manufacturer's instructions.
STHdh^Q111/Q111 and STHdh^Q7/Q7 (Coriell Institute for Medical Research, USA) were cultured in DMEM (Invitrogen, USA) supplemented with FBS (Invitrogen, USA) 10%, Geniticine (G418, Biochrom, Germany)) 1% und antibiotic antimycotic (Invitrogen, USA) 1% in a humidified incubator at 37° C. and 5% CO2. […] 10^4 STHdh^Q7/Q7 and STHdh^Q111/Q111 cells per well were seeded in a 96 well plate incubated with Cpd.

[7] = epileptic (pilocarpine pre-treated) mice

Structure (SMILES)	decrease of S6 phosphorylation (S235/236) versus control [1, 7] [fold]	S6 phosphorylation / mTOR signaling in brain (FIG. 3B) ([1]; epileptic/pilocarpine pre-treated and naïve mice, single oral dose)	decrease of S6 phosphorylation (S235/236) versus control ([1]; naïve mice) [fold]	metabolic activity (PrestoBlue) at 72 hours [2]	mitochondrial activity [2]	mTOR signaling (S6rP phosphorylation and 4E-BP phosphorylation) ([3]; Cpd. 3 200, 400, 1230 nM, Cpd. 8 130, 1230 nM, INK128 100 nM, rapamycin 400 nM)	reduction of number of mutHTT aggregates ([4]; 8 hours of treatment) [%]	reduction of number of mutHTT aggregates ([4]; 24 hours of treatment) [%]	Tissue concentrations reached [5]	Brain AUC (PK in B57BL/6J mice; mouse, po, 50 mg/kg, single) [ng·h/mL]	Brain Cmax (PK in B57BL/6J mice; mouse, po, 50 mg/kg, single) [µg/g]	LDH activity compared to control [6]	LDH production [6]	low concentration at which an effect on mTOR signaling could already be observed ([3]; STHdh^Q7/Q7 cells) [nM]	half-life (PK in B57BL/6J mice; mouse, oral, 50 mg/kg, half-life, as stated in the discussion of the Tsc1 GFAP study) [h]	half-life (PK in B57BL/6J mice; mouse, po, 50 mg/kg, half-life in mice (estimated), mice, single oral 50 mg/kg) [h]	oral bioavailability (PK in B57BL/6J mice; mice, single oral 50 mg/kg)
Nc1cc(C(F)F)c(-c2nc(N3C4CCC3COC4)nc(N3C4CCC3COC4)n2)cn1 [Compound 3, 5-(4-(3-oxa-8-azabicyclo[3.2.1]octan-8-yl)-6-(3-oxa-8-azabicyclo[3.2.1]octan-8-yl)-1,3,5-triazin-2-yl)-4-(difluoromethyl)pyridin-2-amine]	4.3	significantly inhibited S6 phosphorylation in brain	4.6	slight inhibition; also recorded: decreased metabolic activity	slight increase in mitochondrial activity	reduced S6rP phosphorylation and 4E-BP phosphorylation	66	73	well in the efficacious range	30600	7.7	decreased compared to control	reduced LDH production				
C[C@H]1COCCN1c1nc(-c2cnc(N)cc2C(F)F)nc(N2CCOCC2)n1 [Compound 8, (S)-4-(difluoromethyl)-5-(4-(3-methylmorpholino)-6-morpholino-1,3,5-triazin-2-yl)pyridin-2-amine]	2.8		10.9	not significantly	slight increase in mitochondrial activity		55	77	sufficient levels were reached at all concentrations			decreased compared to control	reduced LDH production	130	5	4.7 to 4.8	good oral bioavailability

Reference: patent US11878972B2, “Treatment of neurological disorders” (TORQUR AG, priority 2016, dated 2024)
